The values below come from patent publication US20070166299A1, “TREATMENT FOR EMBOLIC STROKE” (priority 2005, published 2007).

Data set [1] relates to small clot embolic strokes in rabbits. As to the kind of experiment: rabbit small clot embolic stroke model (RSCEM), quantal analysis of behavior. The class given is in vivo. The source says: The invention used a rabbit small clot embolic stroke model (RSCEM) that reproduces many facets of human AIS including a well-defined clinical endpoint. The RSCEM utilizes administration of a suspension of small blood clots to induce strokes, and behavioral deficits that can be measured quantitatively. Moreover, the RSCEM is useful to conduct studies testing the effects of single drugs or drug combinations such as a neuroprotective agent (e.g., NXY-059) plus a thrombolytic (Tenecteplase, Alteplase, Desmoteplase and the like). Since it is likely that a drug combination will be used for patient management it is important to determine whether there are any interactions (positive or negative) between the compounds when administered following embolic strokes.
Methods: Male New Zealand white rabbits were anesthetized using halothane (5% induction, 2% maintenance by facemask), the bifurcation of the right carotid artery was exposed and the external carotid was ligated just distal to the bifurcation, where a catheter was inserted into the common carotid and secured with ligatures. The incision was closed around the catheter with the distal ends left accessible outside the neck; the catheter was filled with heparinized saline and plugged with an injection cap. Rabbits were allowed to recover from anesthesia for a minimum of 3 h until they awoke and behaved normally.
For the RSCEM, microclots were prepared from blood drawn from a donor rabbit and allowed to clot at 37° C. All rabbits in the study received injections of the same sized microclots. For embolization, clot particles were rapidly injected through the carotid catheter and both the syringe and catheter were flushed with 5 ml of normal saline.
Treatment Regimens: (A) Dose-Response Curve: NXY-059 was administered IV at a dose of 0.1-100 mg/kg infused over 30 min beginning 1 hour following embolization. (B) Therapeutic Window: NXY-059 (100 mg/kg) was given beginning 1, 3 or 6 hours following embolization. (C) Tenecteplase Dosing: Tenecteplase was administered IV at a dose of 0.9 mg/kg as a bolus injection given over one minute was administered 1 or 6 hours following embolization. (D) Combination studies: NXY-059 was administered IV at a dose of 100 mg/kg infused over 30 min and Tenecteplase was administered IV at a dose of 0.9 mg/kg beginning 1 or 6 hours following embolization.
Quantal Dose-Response Analysis: For the RSCEM, a quantal dose-response data analysis technique was used. A wide range of lesion volumes is induced to generate both normal and abnormal animals. Using 3 or more different doses of microclots generated each quantal analysis curve. […] Each animal is rated as either normal or abnormal (including dead animals), and inter-rater variability is very low (<5%). […] With this simple rating system, the composite result for a group of animals is quite reproducible. The P50 values are then calculated. These parameters are measures of the amount of microclots (in mg) that produce neurologic dysfunction in 50% of a group of animals. A separate curve is generated for each treatment condition that was tested. The data were analyzed using the t-test, which included the Bonferroni correction where appropriate.
Using the RSCEM model as described above male New Zealand white rabbits weighing 2.2-2.6 Kg were anesthetized and a catheter was inserted into the common carotid artery through which microclots were injected. Briefly, the bifurcation of one carotid artery was exposed and the external carotid was ligated just distal to the bifurcation. A catheter was inserted into the common carotid and secured with ligatures. The incision was closed around the catheter so that the distal end was accessible outside the animal's neck. The catheter was then filled with heparinized saline and plugged with an injection cap. Rabbits were allowed to recover from anesthesia until they were awake and behaving normally. […]

For data set [2], the system named is spinal cord ischemia induced by temporary occlusion of the infrarenal aorta. The data set is described as follows: rabbit reversible spinal cord ischemia model (RSCIM). The class given is in vivo. The procedure: In a rabbit reversible spinal cord ischemia model (RSCIM). ABHS was administered (25 mg/kg) intravenously (i.v.) 5 or 30 min following the start of occlusion to groups of rabbits exposed to ischemia induced by temporary occlusion of the infrarenal aorta. The group P50 represents the duration of ischemia (min) associated with a 50% probability of resultant permanent paraplegia.

The conditions of data set [3]: cited from earlier work.
Where [4] appears, read: ABHS 25 mg/kg, 60 min following embolization.
Setting [5] is: ABHS 25 mg/kg, 180 min following embolization.
The mark [6] stands for this setting: ABHS 25 mg/kg i.v., 5 min post-occlusion.

Like-named read-outs stand apart in the source and are kept apart here.

`CC(=O)[C@H]1CC[C@H]2[C@@H]3CC[C@@H]4C[C@H](OC(=O)CCC(=O)O)CC[C@]4(C)[C@H]3CC[C@]12C` [ABHS, 3-alpha-ol-5-beta-pregnan-20-one hemisuccinate]: the Observation result in data set [1] (ABHS 25 mg/kg, 5 min following embolization) is recorded as “Sedation”; in data set [1] (setting [4]) it was “Sedation”; in data set [1] (setting [5]), “Sedation”. Also, the P50 in data set [1] (setting [4]) is 1.05 ± 0.24 mg; in data set [1] (setting [5]) it was 1.42 ± 0.35 mg. The “effect on therapeutic window for tPA” value in data set [1] (ABHS with tPA (FIG. 7)) is listed as “increases the therapeutic window for tPA”. In addition, the “duration of sedation (loss of righting reflex) after drug injection” value in data set [1] (IV ABHS administration to rabbits) was 2 to 3 h. For the same compound, the “P50 (duration of ischemia associated with 50% probability of permanent paraplegia)” value in data set [2] (setting [6]) came to 49.18 ± 10.44 min. In addition, in data set [2] (setting [6]), the “increase of P50 over control” value is given as 110%. Also, the tolerance to ischemia result in data set [2] (ABHS administered 30 min following the start of occlusion) is reported as “increased the tolerance to ischemia”. Moreover, the persistence of effect entry in data set [2] (ABHS injected 5 min following the start of ischemia and again 24 h after ischemia) was “persistent effect of the drug at 48 h”.
Consider `O=c1cc(-c2ccccc2)oc2cc(O)c(O)c(O)c12` [Baicalein, 5,6,7 trihydroxyflavone], for which the P50 in data set [1] (Baicalein 100 mg/kg SC, 5 minutes following embolization) was determined as 2.85 ± 0.64 mg.
Take `O=C(C=Cc1ccc(O)c(O)c1)OC1CC(O)(C(=O)O)CC(O)C1O` (stereo not drawn) [CGA, 3-[[3-(3,4-Dihydroxyphenyl)-1-oxo-2-propenyl]oxy] 1,4,5-trihydroxycyclohexanecarboxylic acid]: the P50 in data set [1] (CGA 50 mg/kg IV, 5 minutes following embolization, behavior 24 hours) is 3.61 ± 0.52 mg; in data set [1] (CGA 50 mg/kg single bolus, 1 hour post-embolization), 2.57 ± 0.28 mg; in data set [1] (CGA 50 mg/kg, 3 hours following embolization) it was 1.22 ± 0.24 mg.
With `O=c1c(O)c(-c2ccc(O)c(O)c2)oc2cc(O)ccc12` [Fisetin, fisetin], the P50 in data set [1] (Fisetin 50 mg/kg IV, 5 minutes following embolization) was determined as 2.18 ± 0.42 mg.
In the case of `CC(C)(C)[N+]([O-])=Cc1ccc(S(=O)(=O)O)cc1S(=O)(=O)O.[Na].[Na]` [NXY-059, disodium 2,4-disulfophenyl-N-tert-butylnitrone], the P50 in data set [1] (NXY-059 100 mg/kg IV, 1 hour following embolization, measured 24 hours after embolization) came out at 2.81 ± 0.46 mg; in data set [1] (NXY-059 100 mg/kg, 3 hours following embolization), 1.78 ± 0.42 mg. For the same compound, in data set [1] (NXY-059 1-100 mg/kg administered following embolization), the “increase of P50 over vehicle control” value is given as 100-134%. For the same compound, the “effect on P50 (dose-response)” value in data set [1] (NXY-059 doses from 1-100 mg/kg, 1 hour following embolization) was “significantly increased the P50”.
Regarding `CC12CC3CC(C)(C1)CC(N)(C3)C2` [memantine], in data set [1] (memantine with low-dose tPA (FIG. 8)), the “effect on efficacy of low-dose tPA” value is on record as “increases the efficacy of low-dose tPA: synergy”.
With “tPA: thrombolytic, tissue plasminogen activator; FDA-approved treatment for acute ischemic stroke”, the P50 in data set [1] (low-dose tPA 0.9 mg/kg alone, 60 min following embolization) stood at 1.25 ± 0.25 mg; in data set [1] (tPA 3.3 mg/kg alone, 60 min after embolization (ABHS study)), 2.69 ± 0.19 mg; in data set [1] (tPA 3.3 mg/kg, 1 hour after embolization (CGA study)), 2.89 ± 0.29 mg; in data set [1] (tPA 3.3 mg/kg, 3 hours after embolization (CGA study)), 1.54 ± 0.27 mg. The entries for the “increase of hemorrhage rate” value in data set [3] (high dose of tPA 3.3 mg/kg) and in data set [3] (low dose of tPA 0.9 mg/kg) were 52% and 28%, respectively.
